Converted amounts (≈) assume the structure as drawn. The source made the active and inactive calls. The calls are words filed in the database; no cut-off is given here.
What was measured:
[1] = test system: Saccharomyces cerevisiae; assay: Antifungal activity against Saccharomyces cerevisiae NCIM 3044 assessed as growth inhibition after 48 hrs by broth microdilution method; type: functional, organism-based; conditions: NCIM 3044, 48 h
[2] = test system: Candida albicans; assay: Antifungal activity against Candida albicans MTCC 183 assessed as diameter of growth inhibition zone at 500 ug/ml after 4 days by agar disc diffusion method; type: functional
[3] = test system: Staphylococcus aureus; assay: Antibacterial activity against Staphylococcus aureus MTCC 4102 assessed as diameter of growth inhibition zone at 1000 ug/ml after 20 hrs by agar disc diffusion method; type: functional
[4] = test system: Pseudomonas aeruginosa; assay: Antibacterial activity against Pseudomonas aeruginosa MTCC 4727 assessed as diameter of growth inhibition zone at 500 ug/ml after 20 hrs by agar disc diffusion method; type: functional
[5] = test system: Staphylococcus aureus; assay: Antibacterial activity against Staphylococcus aureus MTCC 4102 assessed as diameter of growth inhibition zone at 500 ug/ml after 20 hrs by agar disc diffusion method; type: functional
[6] = test system: Escherichia coli; assay: Antibacterial activity against Escherichia coli NCIM 2931 assessed as diameter of growth inhibition zone at 1000 ug/ml after 20 hrs by agar disc diffusion method; type: functional; conditions: NCIM 2931, 20 h, read-out: DIZ
[7] = test system: Bacillus cereus; assay: Antibacterial activity against Bacillus cereus NCIM 2155 assessed as diameter of growth inhibition zone at 1000 ug/ml after 20 hrs by agar disc diffusion method; type: functional
[8] = test system: Saccharomyces cerevisiae; assay: Antifungal activity against Saccharomyces cerevisiae NCIM 3044 assessed as diameter of growth inhibition zone at 1000 ug/ml after 4 days by agar disc diffusion method; type: functional
[9] = test system: Bacillus cereus; assay: Antibacterial activity against Bacillus cereus NCIM 2155 assessed as diameter of growth inhibition zone at 500 ug/ml after 20 hrs by agar disc diffusion method; type: functional
[10] = test system: Candida albicans; assay: Antifungal activity against Candida albicans MTCC 183 assessed as diameter of growth inhibition zone at 1000 ug/ml after 4 days by agar disc diffusion method; type: functional
[11] = test system: Pseudomonas aeruginosa; assay: Antibacterial activity against Pseudomonas aeruginosa MTCC 4727 assessed as diameter of growth inhibition zone at 1000 ug/ml after 20 hrs by agar disc diffusion method; type: functional
[12] = test system: Escherichia coli; assay: Antibacterial activity against Escherichia coli NCIM 2931 assessed as growth inhibition after 24 hrs by broth microdilution method; type: functional, organism-based; conditions: NCIM 2931, 24 h
[13] = test system: Escherichia coli; assay: Antibacterial activity against Escherichia coli NCIM 2931 assessed as diameter of growth inhibition zone at 500 ug/ml after 20 hrs by agar disc diffusion method; type: functional; conditions: NCIM 2931, 20 h, read-out: DIZ
[14] = test system: Saccharomyces cerevisiae; assay: Antifungal activity against Saccharomyces cerevisiae NCIM 3044 assessed as diameter of growth inhibition zone at 500 ug/ml after 4 days by agar disc diffusion method; type: functional
[15] = test system: Staphylococcus aureus; assay: Antibacterial activity against Staphylococcus aureus MTCC 4102 assessed as growth inhibition after 24 hrs by broth microdilution method; type: functional, organism-based; conditions: MTCC 4102, 24 h

Question: Which results are given for `N#CC1CCCN(c2ncc(-c3cccc(F)c3)c3[nH]c(-c4ccco4)nc23)C1` (stereo not given)?
Answer: IC50 [1]: 98.8 µg/mL (≈ 255 µM); MIC [1]: 296 µg/mL (≈ 765 µM); diameter of the inhibition zone (DIZ) [2]: inactive; diameter of the inhibition zone (DIZ) [3]: inactive; diameter of the inhibition zone (DIZ) [4]: inactive; diameter of the inhibition zone (DIZ) [5]: inactive; zone of inhibition at 1000 µg/mL [6]: 16 mm; diameter of the inhibition zone (DIZ) [7]: inactive; zone of inhibition at 1000 µg/mL ([8]; NCIM 3044, 96 h, read-out: DIZ): 15 mm; diameter of the inhibition zone (DIZ) [9]: inactive; diameter of the inhibition zone (DIZ) [10]: inactive; diameter of the inhibition zone (DIZ) [11]: inactive; IC50 [12]: 74.5 µg/mL (≈ 192 µM); MIC [12]: 198 µg/mL (≈ 510 µM); zone of inhibition at 500 µg/mL [13]: 8 mm; zone of inhibition at 500 µg/mL ([14]; NCIM 3044, 96 h, read-out: DIZ): 6.9 mm

Question: How did the IC50 [15] turn out when `COc1cc(-c2cnc(N3CCC(C#N)CC3)c3nc(Cc4ccc(Cl)cc4Cl)[nH]c23)ccc1F` was run?
Answer: 100 µg/mL (≈ 196 µM)

Question: What about the MIC [15] of the same molecule?
Answer: 200 µg/mL (≈ 392 µM)

Question: What about the “diameter of the inhibition zone (DIZ)” value [2] of the same molecule?
Answer: inactive

Question: What about the zone of inhibition at 1000 µg/mL ([3]; MTCC 4102, 20 h, read-out: DIZ) of the same molecule?
Answer: 23 mm

Question: And the zone of inhibition at 500 µg/mL ([4]; MTCC 4727, 20 h, read-out: DIZ)?
Answer: 3.5 mm

Question: What about the zone of inhibition at 500 µg/mL ([5]; MTCC 4102, 20 h, read-out: DIZ) of the same molecule?
Answer: 10.5 mm

Question: What about the zone of inhibition at 1000 µg/mL [6] of the same molecule?
Answer: 9 mm

Question: What about the “diameter of the inhibition zone (DIZ)” value [7] of the same molecule?
Answer: inactive

Question: What about the “diameter of the inhibition zone (DIZ)” value [8] of the same molecule?
Answer: inactive

Question: And the “diameter of the inhibition zone (DIZ)” value [9]?
Answer: inactive

Question: What about the “diameter of the inhibition zone (DIZ)” value [10] of the same molecule?
Answer: inactive

Question: And the zone of inhibition at 1000 µg/mL ([11]; MTCC 4727, 20 h, read-out: DIZ)?
Answer: 8 mm

Question: What about the zone of inhibition at 500 µg/mL [13] of the same molecule?
Answer: 4.1 mm

Question: And the “diameter of the inhibition zone (DIZ)” value [14]?
Answer: inactive
